According to patent US9926304B2, “1-(arylmethyl)quinazoline-2,4(1H,3H)-diones as PARP inhibitors and the use thereof” (Impact Therapeutics, Inc., priority 2011, dated 2018):
One block for each compound: values may come before it.

Tests used:
[1] = test system: SW620 human colorectal cancer cells; assay: MTT based cell viability assay: potentiation of the growth inhibiting activity of MMS; conditions: Homo sapiens, SW-620, 120 h, read-out: IC50 (nM), potentiation of the growth inhibiting activity of MMS, SW620 cells, 1.7 μg/ml MMS, 5 days (120 hours), MTT
[2] = test system: BRCA-2 deficient CAPAN-1 human pancreatic cancer cells; assay: MTT based cell viability assay: growth inhibition of BRCA-2 deficient CAPAN-1 cells; conditions: 240 h, compound alone, 10 day assay
[3] = test system: Human breast cancer cell line T47D; assay: Cell based caspase-3 activity assay: potentiation of MMS induced apoptosis; conditions: Homo sapiens, T47D, 24 h, T47D cells, 11.1 μg/ml MMS, 24 hours, intracellular caspase-3 activity; read-out: EC50 (nM), potentiation of the apoptosis inducing activity of MMS
Procedure, shortened: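 T47D cells were exposed for 24 h to compound plus a minimally apoptotic MMS dose (medium containing 11.1 μg/ml MMS). Lysates were incubated 3 h at 37 °C with (Ac-DEVD)2-R110 caspase-3 substrate (20 μM in added buffer) and read at ex 496/em 520 nm. EC50 came from a sigmoidal fit of RFU versus log concentration.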

Compound: O=C(c1cccc(Cn2c(=O)[nH]c(=O)c3cc(F)ccc32)c1)N1CCN(c2ccccn2)CC1 [Example 140, 6-Fluoro-1-(3-(4-(pyridin-2-yl)piperazine-1-carbonyl)benzyl)quinazoline-2,4(1H,3H)-dione]
IC50 [1]: 37 nM
IC50 [2]: 155 nM
EC50 [3]: 8.9 nM

Compound: O=C(c1cc(Cn2c(=O)[nH]c(=O)c3cc(F)ccc32)ccc1F)N1CCN(c2ccccn2)CC1 [Example 145, 6-Fluoro-1-(4-fluoro-3-(4-(pyridin-2-yl)piperazine-1-carbonyl)benzyl)quinazoline-2,4(1H,3H)-dione]
IC50 [1]: 12 nM
IC50 [2]: 146 nM
EC50 [3]: 6.5 nM

Compound: O=C(c1ccc(F)c(Cn2c(=O)[nH]c(=O)c3cc(F)ccc32)c1)N1CCN(c2ncccn2)CC1 [Example 149, 6-Fluoro-1-(6-fluoro-3-(4-(pyrimidin-2-yl)piperazine-1-carbonyl)benzyl)quinazoline-2,4(1H,3H)-dione]
IC50 [1]: 14 nM
IC50 [2]: 52 nM
EC50 [3]: 5.8 nM

Compound: O=C(c1ccc(F)c(Cn2c(=O)[nH]c(=O)c3cc(F)ccc32)c1)N1CCN(c2ccccn2)CC1 [Example 150, 6-Fluoro-1-(6-fluoro-3-(4-(pyridin-2-yl)piperazine-1-carbonyl)benzyl)quinazoline-2,4(1H,3H)-dione]
IC50 [1]: 25 nM
IC50 [2]: 176 nM
EC50 [3]: 16 nM

Compound: O=C(c1ccc(F)c(Cn2c(=O)[nH]c(=O)c3c(F)cccc32)c1)N1CCN(c2ccccn2)CC1 [Example 155, 5-Fluoro-1-(6-fluoro-3-(4-(pyridin-2-yl)piperazine-1-carbonyl)benzyl)quinazoline-2,4(1H,3H)-dione]
IC50 [1]: 23 nM
IC50 [2]: 142 nM
EC50 [3]: 12 nM

Compound: O=C(c1ccc(F)c(Cn2c(=O)[nH]c(=O)c3c(F)cccc32)c1)N1CCN(C(=O)C2CCCCC2)CC1 [Example 157, 1-(3-(4-(Cyclohexylcarbonyl)piperazine-1-carbonyl)-6-fluorobenzyl)-5-fluoroquinazoline-2,4(1H,3H)-dione]
IC50 [1]: 18 nM
IC50 [2]: 202 nM
EC50 [3]: 26 nM

Compound: O=C(c1cccc(Cn2c(=O)[nH]c(=O)c3ccc(Cl)cc32)c1)N1CCN(c2ncccn2)CC1 [Example 161, 7-Chloro-1-(3-(4-(pyrimidin-2-yl)piperazine-1-carbonyl)benzyl)quinazoline-2,4(1H,3H)-dione]
IC50 [1]: 506 nM
IC50 [2]: 3550 nM
EC50 [3]: 405 nM

Compound: O=C(c1cc(Cn2c(=O)[nH]c(=O)c3c(Cl)cccc32)ccc1F)N1CCN(C(=O)C2CCC2)CC1 [Example 168, 5-Chloro-1-(3-(4-(cyclobutylcarbonyl)piperazine-1-carbonyl)-4-fluorobenzyl)quinazoline-2,4(1H,3H)-dione]
IC50 [1]: 15 nM
IC50 [2]: 1460 nM
EC50 [3]: 3.8 nM

Compound: O=C(c1ccco1)N1CCN(C(=O)c2cc(Cn3c(=O)[nH]c(=O)c4c(F)cccc43)ccc2F)CC1 [Example 172, 5-Fluoro-1-(4-fluoro-3-(4-(furan-2-carbonyl)piperazine-1-carbonyl)benzyl)quinazoline-2,4(1H,3H)-dione]
IC50 [1]: 9.5 nM
IC50 [2]: 389 nM
EC50 [3]: 3.2 nM

Compound: O=C(c1cc(F)cc(Cn2c(=O)[nH]c(=O)c3cc(F)ccc32)c1)N1CCN(c2ncccn2)CC1 [Example 186, 6-Fluoro-1-(5-fluoro-3-(4-(pyrimidin-2-yl)piperazine-1-carbonyl)benzyl)quinazoline-2,4(1H,3H)-dione]
IC50 [1]: 24 nM
IC50 [2]: 167 nM
EC50 [3]: 6.8 nM

Compound: O=C(c1cccc(Cn2c(=O)[nH]c(=O)c3cc(F)ccc32)n1)N1CCN(c2ncccn2)CC1 [Example 199, 6-Fluoro-1-((2-(4-(pyrimidin-2-yl)piperazine-1-carbonyl)pyridin-6-yl)methyl)quinazoline-2,4(1H,3H)-dione]
IC50 [1]: 19 nM
IC50 [2]: 948 nM
EC50 [3]: 4.9 nM

Compound: O=C(c1cc(Cn2c(=O)[nH]c(=O)c3c(F)cccc32)ccc1F)N1CCN(CC2CCCCC2)CC1 [Example 217, 1-(3-(4-(Cyclohexylmethyl)piperazine-1-carbonyl)-4-fluorobenzyl)-5-fluoroquinazoline-2,4(1H,3H)-dione]
IC50 [1]: 2.5 nM
IC50 [2]: 460 nM
EC50 [3]: 19 nM

The remaining compounds from weak to strong by IC50 [1], led by results:

IC50 [1]: 22 nM
IC50 [2]: 223 nM
EC50 [3]: 3.8 nM
Compound: O=C(c1cccc(Cn2c(=O)[nH]c(=O)c3cc(F)ccc32)c1)N1CCN(C(=O)C2CCCCC2)CC1 [Example 142, 1-(3-(4-(Cyclohexylcarbonyl)piperazine-1-carbonyl)benzyl)-6-fluoroquinazoline-2,4(1H,3H)-dione]

IC50 [1]: 19 nM
IC50 [2]: > 10000 nM
EC50 [3]: 45 nM
Compound: O=C(c1cc(Cn2c(=O)[nH]c(=O)c3c(F)cccc32)ccc1F)N1CCN(C2CCCCC2)CC1 [Example 212, 1-(3-(4-Cyclohexylpiperazine-1-carbonyl)-4-fluorobenzyl)-5-fluoroquinazoline-2,4(1H,3H)-dione]

IC50 [1]: 15 nM
IC50 [2]: 73 nM
EC50 [3]: 6 nM
Compound: O=C(c1cccc(Cn2c(=O)[nH]c(=O)c3cc(F)ccc32)c1)N1CCN(C(=O)C2CCCC2)CC1 [Example 143, 1-(3-(4-(Cyclopentylcarbonyl)piperazine-1-carbonyl)benzyl)-6-fluoroquinazoline-2,4(1H,3H)-dione]

IC50 [1]: 15 nM
IC50 [2]: 187 nM
EC50 [3]: 10 nM
Compound: O=C(c1cc(F)cc(Cn2c(=O)[nH]c(=O)c3c(F)cccc32)c1)N1CCN(c2ncccn2)CC1 [Example 176, 5-Fluoro-1-(5-fluoro-3-(4-(pyrimidin-2-yl)piperazine-1-carbonyl)benzyl)quinazoline-2,4(1H,3H)-dione]

IC50 [1]: 13 nM
IC50 [2]: 121 nM
EC50 [3]: 5.1 nM
Compound: O=C(c1ccc(F)c(Cn2c(=O)[nH]c(=O)c3cc(F)ccc32)c1)N1CCN(C(=O)C2CCCCC2)CC1 [Example 152, 1-(3-(4-(Cyclohexylcarbonyl)piperazine-1-carbonyl)-6-fluorobenzyl)-6-fluoroquinazoline-2,4(1H,3H)-dione]

IC50 [1]: 10 nM
IC50 [2]: 3440 nM
EC50 [3]: 15 nM
Compound: O=C(c1cc(Cn2c(=O)[nH]c(=O)c3c(F)cccc32)ccc1F)N1CCN(C(=O)C2CCCO2)CC1 (stereo not drawn) [Example 210, 5-Fluoro-1-(4-fluoro-3-(4-(tetrahydrofuran-2-carbonyl)piperazine-1-carbonyl)benzyl)quinazoline-2,4(1H,3H)-dione]

IC50 [1]: 7.3 nM
IC50 [2]: 56 nM
EC50 [3]: 6.7 nM
Compound: O=C(c1ccc(F)c(Cn2c(=O)[nH]c(=O)c3c(F)cccc32)c1)N1CCN(c2ncccn2)CC1 [Example 154, 5-Fluoro-1-(6-fluoro-3-(4-(pyrimidin-2-yl)piperazine-1-carbonyl)benzyl)quinazoline-2,4(1H,3H)-dione]

IC50 [1]: 6.7 nM
IC50 [2]: 358 nM
EC50 [3]: 2.1 nM
Compound: O=C(c1ccco1)N1CCN(C(=O)c2cc(Cn3c(=O)[nH]c(=O)c4cc(F)ccc43)ccc2F)CC1 [Example 185, 6-Fluoro-1-(4-fluoro-3-(4-(furan-2-carbonyl)piperazine-1-carbonyl)benzyl)quinazoline-2,4(1H,3H)-dione]
